This is an account of results in patent publication US20240368150A1 (Hoffmann-La Roche Inc., priority 2021, published 2024).

Read-outs that look alike come from different tables or passages of the source. Where only a bound is given, the exact number is not on record here.

In one experiment the test system is MV-3 cells. The experiment can be described thus: T-cell - TCB - MV3 killing assay (MCSP-TCB, RFP object count by Incucyte). The format is cell-based, human.
Experiment [1] deals with primary human T-cells.
Experiment [2] has as its system primary human T-cells. In words: Proliferation assay after 5 days (CellTiter-Glo, CD3 stimulation; PBS counter screen). It counts as cell-based. The following applies: CD3 stimulation; for Emax: read-out: Emax proliferation (% activation); for EC50: primary human T-cells, CellTiter-Glo after 5 days, EC50 of fitted sigmoidal curve, read-out: Tcell Proliferation CD3 EC50. The procedure, abridged: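 Read-out: CellTiter-Glo 2.0 luminescence (ATP ∝ cell number) at day 5 after compound addition. Compounds activating unstimulated cells or reducing viability flagged.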
(In general: In ATP-based viability assays light output follows the ATP content of the culture.)

[3] abbreviates: Homo sapiens, MV-3, 120 h, normalized: MCSP-TCB only = neutral control, 20 μM reference compound A1 = 100%; 5 d; read-out: MSCP TCB killing MV-3 cells 5 d Emax.
Setting [4] is: primary human T-cells + MCSP-TCB, MV-3 RFP cells, 5 d; read-out: MSCP TCB killing MV-3 cells 5 d EC50.
Setting [5] is: Homo sapiens, T-cell, 120 h, 5 days, normalized to reference compound A1 as stimulator control = 100%, DMSO neutral control.
The mark [6] stands for this setting: Homo sapiens, MV-3, 120 h, primary human T-cells + MCSP-TCB, MV-3 RFP cells, 5 d; read-out: MSCP TCB killing MV-3 cells 5 d EC50.
[7] abbreviates: normalized: MCSP-TCB only = neutral control, 20 μM reference compound A1 = 100%; 5 d.

As to `CC(C)(C)c1nnc(-c2cc3c(cc2F)S(=O)(=O)C[C@H](N)C(=O)N3Cc2ccc(Cl)nc2)o1` [Example 237, (3R)-3-amino-7-(5-tert-butyl-1,3,4-oxadiazol-2-yl)-5-[(6-chloro-3-pyridyl)methyl]-8-fluoro-1,1-dioxo-2,3-dihydro-1λ^6,5-benzothiazepin-4-one], the figures for the Emax in the experiment with MV-3 cells (setting [3]) and in the experiment on primary human T-cells [2] (setting [5]) were 84% and 106%, respectively. Moreover, the EC50 in the experiment on MV-3 cells (setting [4]) stood at 450 nM; with primary human T-cells [1], 526 nM; in the experiment with primary human T-cells [2] (Homo sapiens, T-cell, 120 h) it was 1300 nM.
`CC(C)(C)c1noc(-c2cc3c(cc2F)S(=O)(=O)C[C@H](N)C(=O)N3Cc2ccc(Cl)cc2)n1` [Example 43, (3R)-3-Amino-7-(3-tert-butyl-1,2,4-oxadiazol-5-yl)-5-[(4-chlorophenyl)methyl]-8-fluoro-1,1-dioxo-2,3-dihydro-1λ^6,5-benzothiazepin-4-one]: the Emax with MV-3 cells (setting [3]) came to 102%; in the experiment with primary human T-cells [2] (setting [5]) it was 143%. Besides, the EC50 with MV-3 cells (setting [6]) is 40 nM; with primary human T-cells [1], 2320 nM; in the experiment on primary human T-cells [2] (Homo sapiens, T-cell, 120 h), 265 nM.
With `CC(C)(C)n1nnc(-c2ccc3c(c2)N(Cc2ccc(Cl)cc2)C(=O)[C@@H](N)CS3(=O)=O)n1` [Example 36], the values for the Emax with MV-3 cells (setting [3]) and in the experiment with primary human T-cells [2] (setting [5]) were 81% and 86%, respectively. Moreover, the EC50 with MV-3 cells (setting [4]) was found to be 390 nM; with primary human T-cells [1], 472 nM; in the experiment with primary human T-cells [2] (Homo sapiens, T-cell, 120 h), 404 nM.
Consider `CC(C)(CO)c1noc(-c2cc3c(cc2F)S(=O)(=O)C[C@H](N)C(=O)N3Cc2ccc(Cl)cc2)n1` (racemic) [Example 46], for which the Emax with MV-3 cells (setting [3]) stood at 83%; in the experiment with primary human T-cells [2] (setting [5]) it was 94%. In addition, the EC50 with MV-3 cells (setting [4]) was determined as 1040 nM; in the experiment with primary human T-cells [1], 686 nM; in the experiment on primary human T-cells [2] (Homo sapiens, T-cell, 120 h) it was 1820 nM.
Regarding `CC(C)(C)c1nnc(-c2cc3c(cc2F)S(=O)(=O)C[C@H](N)C(=O)N3Cc2ccc(C#N)cc2)o1` [Example 220, 4-[[(3R)-3-amino-7-(5-tert-butyl-1,3,4-oxadiazol-2-yl)-8-fluoro-1,1,4-trioxo-2,3-dihydro-1λ^6,5-benzothiazepin-5-yl]methyl]benzonitrile], the Emax is 100% with MV-3 cells (Homo sapiens, MV-3, 120 h, read-out: MSCP TCB killing MV-3 cells 5 d Emax) and 102% with primary human T-cells [2] (setting [5]). For the same compound, the EC50 with MV-3 cells (read-out: MSCP TCB killing MV-3 cells 5 d EC50; primary human T-cells + MCSP-TCB, MV-3 RFP cells, 5 d) is 390 nM; in the experiment with primary human T-cells [1], 238 nM; in the experiment with primary human T-cells [2] (T-cell, 120 h) it was 564 nM.
Regarding `CC(C)(C)c1nnc(-c2cc3c(cc2F)[S+]([O-])C[C@H](N)C(=O)N3Cc2ccc(Cl)cc2)o1` (single isomer, unassigned; epimer b) [Example 187], the “MSCP TCB killing MV-3 cells 5 d Emax” value in the experiment with MV-3 cells (setting [7]) stood at 57%. Further, the EC50 in the experiment on MV-3 cells (setting [4]) came to 1640 nM; with primary human T-cells [1] it was 594 nM; with primary human T-cells [2], 1540 nM. In addition, the “Emax proliferation (% activation)” value in the experiment with primary human T-cells [2] (5 days, normalized to reference compound A1 as stimulator control = 100%, DMSO neutral control) came to 92 % activation.
In the case of `CC(C)(C)c1nnc(-c2ccc3c(c2)N(Cc2ccc(C(C)(C)C#N)cc2)C(=O)[C@@H](N)CS3(=O)=O)o1` [Example 437, 2-[4-[[(3R)-3-amino-7-(5-tert-butyl-1,3,4-oxadiazol-2-yl)-1,1,4-trioxo-2,3-dihydro-1λ^6,5-benzothiazepin-5-yl]methyl]phenyl]-2-methyl-propanenitrile], the Emax is 88% in the experiment on MV-3 cells (setting [3]) and 112% with primary human T-cells [2] (setting [5]). Further, the EC50 worked out at 340 nM in the experiment on MV-3 cells (setting [6]); 1400 nM in the experiment with primary human T-cells [1]; 698 nM with primary human T-cells [2] (Homo sapiens, T-cell, 120 h).
Turning to `CC(C)(C)c1nnc(-c2cc3c(cc2F)[S+]([O-])C[C@H](N)C(=O)N3Cc2ccc(Cl)cc2)o1` (stereo partly drawn) [Example 186, (3R)-3-amino-7-(5-tert-butyl-1,3,4-oxadiazol-2-yl)-5-[(4-chlorophenyl)methyl]-8-fluoro-1-oxo-2,3-dihydro-1λ^4,5-benzothiazepin-4-one], the “MSCP TCB killing MV-3 cells 5 d Emax” value with MV-3 cells (setting [7]) was determined as 100%. The EC50 was found to be 130 nM with MV-3 cells (setting [4]), 158 nM with primary human T-cells [1] and 710 nM with primary human T-cells [2]. Besides, the Emax in the experiment with primary human T-cells [2] (setting [5]) is 94%.
On to `CC(C)(C)n1cnc(-c2cc3c(cc2F)S(=O)(=O)C[C@H](N)C(=O)N3Cc2ccc(Cl)cc2)n1` [Example 286, (3R)-3-amino-7-(1-tert-butyl-1,2,4-triazol-3-yl)-5-[(4-chlorophenyl)methyl]-8-fluoro-1,1-dioxo-2,3-dihydro-1λ^6,5-benzothiazepin-4-one], for which the Emax in the experiment with MV-3 cells (setting [3]) is 100%; in the experiment with primary human T-cells [2] (setting [5]), 93%. Also, the EC50 was 80 nM in the experiment with MV-3 cells (setting [4]); > 20000 nM with primary human T-cells [1]; 338 nM with primary human T-cells [2] (Homo sapiens, T-cell, 120 h).
With `N[C@H]1CS(=O)(=O)c2cc(F)c(-c3nnc(NC4CCC(F)(F)C4)o3)cc2N(Cc2ccc(Cl)cc2)C1=O` (stereo partly drawn) [Example 456, (3R)-3-amino-5-[(4-chlorophenyl)methyl]-7-[5-[(3,3-difluorocyclopentyl)amino]-1,3,4-oxadiazol-2-yl]-8-fluoro-1,1-dioxo-2,3-dihydro-1λ^6,5-benzothiazepin-4-one], the Emax with MV-3 cells (setting [3]) amounted to 94%; in the experiment with primary human T-cells [2] (setting [5]), 99%. Besides, the EC50 with MV-3 cells (setting [4]) stood at 770 nM; in the experiment on primary human T-cells [1], 607 nM; with primary human T-cells [2] (Homo sapiens, T-cell, 120 h), 1260 nM.
On to `N[C@H]1CS(=O)(=O)c2cc(F)c(-c3nnc(NC4CC(F)(F)C4)o3)cc2N(Cc2ccc(Cl)cc2)C1=O` [Example 462, (3R)-3-amino-5-[(4-chlorophenyl)methyl]-7-[5-[(3,3-difluorocyclobutyl)amino]-1,3,4-oxadiazol-2-yl]-8-fluoro-1,1-dioxo-2,3-dihydro-1λ^6,5-benzothiazepin-4-one], for which the Emax came to 100% in the experiment on MV-3 cells (setting [3]) and 121% in the experiment on primary human T-cells [2] (setting [5]). Also, the EC50 was 350 nM in the experiment on MV-3 cells (setting [4]); 986 nM in the experiment with primary human T-cells [1]; 562 nM with primary human T-cells [2] (Homo sapiens, T-cell, 120 h).
Consider `CC(C)(C)Nc1nnc(-c2cc3c(cc2F)S(=O)(=O)C[C@H](N)C(=O)N3Cc2ccc(Cl)cc2)o1` [Example 488, (3R)-3-amino-7-[5-(tert-butylamino)-1,3,4-oxadiazol-2-yl]-5-[(4-chlorophenyl)methyl]-8-fluoro-1,1-dioxo-2,3-dihydro-1λ^6,5-benzothiazepin-4-one], for which the results for the Emax in the experiment on MV-3 cells (setting [3]) and with primary human T-cells [2] (setting [5]) were 93% and 105%, respectively. The EC50 in the experiment with MV-3 cells (setting [4]) amounted to 300 nM; in the experiment on primary human T-cells [1], 254 nM; in the experiment on primary human T-cells [2] (Homo sapiens, T-cell, 120 h), 351 nM.
With `C[C@H](N)C(=O)N[C@H]1CS(=O)(=O)c2cc(F)c(-c3nnc(C(C)(C)C)o3)cc2N(Cc2ccc(Cl)cc2)C1=O` [Example 262], the Emax came to 92% with MV-3 cells (setting [3]) and 101% with primary human T-cells [2] (setting [5]). Moreover, the EC50 was 30 nM with MV-3 cells (setting [4]); < 162 nM in the experiment on primary human T-cells [1]; < 162 nM in the experiment with primary human T-cells [2] (Homo sapiens, T-cell, 120 h).
On to `CCc1cn(-c2cc3c(cc2F)S(=O)(=O)C[C@H](N)C(=O)N3Cc2ccc(Cl)cc2)nn1` [Example 3, (3R)-3-amino-5-[(4-chlorophenyl)methyl]-7-(4-ethyltriazol-1-yl)-8-fluoro-1,1-dioxo-2,3-dihydro-1λ^6,5-benzothiazepin-4-one], for which the values for the Emax in the experiment with MV-3 cells (setting [3]) and in the experiment on primary human T-cells [2] (setting [5]) were 100% and 68%, respectively. Besides, the EC50 came out at 1550 nM in the experiment on MV-3 cells (setting [4]); 12000 nM in the experiment with primary human T-cells [1]; 4300 nM with primary human T-cells [2] (Homo sapiens, T-cell, 120 h).
Take `CCc1nnc(-c2cc3c(cc2F)S(=O)(=O)C[C@H](N)C(=O)N3Cc2ccc(Cl)cc2)o1` [Example 72, (3R)-3-Amino-5-[(4-chlorophenyl)methyl]-7-(5-ethyl-1,3,4-oxadiazol-2-yl)-8-fluoro-1,1-dioxo-2,3-dihydro-1λ^6,5-benzothiazepin-4-one]: the Emax in the experiment on MV-3 cells (setting [3]) turned out to be 115%; with primary human T-cells [2] (setting [5]), 124%. Moreover, the EC50 with MV-3 cells (setting [4]) is 310 nM; in the experiment with primary human T-cells [1], 3240 nM; in the experiment on primary human T-cells [2] (Homo sapiens, T-cell, 120 h), 1140 nM.
Take `N[C@H]1CS(=O)(=O)c2cc(F)c(-c3nnc(C4CCCCC4(F)F)o3)cc2N(Cc2ccc(Cl)cc2)C1=O` (stereo partly drawn) [Example 74, (3R)-3-Amino-5-[(4-chlorophenyl)methyl]-7-[5-(2,2-difluorocyclohexyl)-1,3,4-oxadiazol-2-yl]-8-fluoro-1,1-dioxo-2,3-dihydro-1λ^6,5-benzothiazepin-4-one]: the Emax in the experiment with MV-3 cells (setting [3]) came to 97%; with primary human T-cells [2] (setting [5]) it was 180%. Further, the EC50 in the experiment on MV-3 cells (setting [4]) was 20 nM; in the experiment with primary human T-cells [1], 55.2 nM; in the experiment with primary human T-cells [2] (Homo sapiens, T-cell, 120 h) it was 48.7 nM.
For the compound `N[C@H]1CS(=O)(=O)c2cc(F)c(-c3nnc(C4CCCC(F)(F)C4)o3)cc2N(Cc2ccc(Cl)cc2)C1=O` (stereo partly drawn) [Example 91, (3R)-3-amino-5-[(4-chlorophenyl)methyl]-7-[5-(3,3-difluorocyclohexyl)-1,3,4-oxadiazol-2-yl]-8-fluoro-1,1-dioxo-2,3-dihydro-1λ^6,5-benzothiazepin-4-one], the Emax in the experiment with MV-3 cells (setting [3]) was found to be 93%; in the experiment with primary human T-cells [2] (setting [5]), 139%. Also, the EC50 worked out at 20 nM in the experiment on MV-3 cells (setting [4]); 34.1 nM in the experiment on primary human T-cells [1]; 125 nM in the experiment with primary human T-cells [2] (Homo sapiens, T-cell, 120 h).
In the case of `CC(C)(C)c1cnn(-c2cc3c(cc2F)S(=O)(=O)C[C@H](N)C(=O)N3Cc2ccc(Cl)cc2)c1` [Example 282, (3R)-3-amino-7-(4-tert-butylpyrazol-1-yl)-5-[(4-chlorophenyl)methyl]-8-fluoro-1,1-dioxo-2,3-dihydro-1λ^6,5-benzothiazepin-4-one], the Emax with MV-3 cells (setting [3]) is 74%; in the experiment with primary human T-cells [2] (setting [5]) it was 96%. Further, the EC50 with MV-3 cells (setting [4]) came to 880 nM; with primary human T-cells [1], 3710 nM; in the experiment on primary human T-cells [2] (Homo sapiens, T-cell, 120 h) it was 5490 nM.
